The text below walks through data of a melting point compilation (Tetko et al.; mined from patent text by program, amines drawn as free bases though some values may be those of a salt).

As for `CC(C)c1nc(COC2=CCCCC2)n(C)c1Sc1cc(Cl)cc(Cl)c1`, the melting point (usually the temperature of the solid-liquid transition) lay in the range of 69 to 71 °C.

Compound `Cc1ccnc(-c2cccc(Oc3ccccc3C)n2)n1` registered a melting point of 121 °C.

For `Clc1ccc2[nH]cc(C3=CCN(CCCOc4cccc5[nH]ccc45)CC3)c2c1`, the melting point was in the range of 198 to 202 °C.

`O=C1C(=O)c2c(nc3ccc(Cl)cn23)-c2cccc(Cl)c21` had a melting point of over 260 °C.

For `COc1ccc(-n2cnc3ccc(-c4nnc(CCc5cccc(C(F)(F)F)c5)o4)cc32)cc1`, the melting point lay in the range of 159 to 160 °C.

In the case of `CCOC(=O)CCc1cn(Cc2cc(OCc3ccccc3)cc(OCc3csc(-c4cnccn4)n3)c2)cc1-c1ccccc1`, the melting point fell in the range of 126 to 127 °C.

`O=Cc1ccc(-c2ccc3nc[nH]c(=O)c3c2)o1`: the melting point was determined as 267 °C.

Compound `N#Cc1c(N)cccc1Oc1ccccc1` came in with a melting point of 66 to 67 °C.

Consider `CCOC(=O)C(=CNc1ccc(F)c(Cl)c1)C(=O)OCC`, for which the melting point fell in the range of 71.5 to 72.5 °C.

`COc1ccc(NC2(C(N)=O)CCOCC2)cc1` gave a melting point of 141 to 143 °C.

Turning to `CN1C(=O)CC(C(=O)Nc2nccs2)C(=O)c2ccc(Cl)cc21` (centres undefined), the melting point was in the range of 238 to 240 °C.

Turning to `Oc1ccc2c(-c3ccc(Cl)cc3)noc2c1`, the melting point is 203 °C.

With `O=C(O)c1ccc(CN(Cc2cc(Br)ccc2OCc2ccccc2)c2ccc(C(=O)O)cc2)cc1`, the melting point turned out to be 271 °C.

The compound `COc1ccc2cc(-c3ccc(-n4nc(C)c(C)n4)c(Cl)c3)c(=O)oc2c1` gave a melting point of 170 °C.

On to `O=C(Nc1ccc(-c2cnc(-c3ccc(NC(=O)c4cccnc4)cc3)[nH]2)cc1)c1cccnc1`, for which the melting point lay within 317 to 319 °C.

Take `CCOC(=O)c1cn(C2CC2)c2c(CSCC)c(N3CCOCC3)c(F)cc2c1=O`: the melting point fell in the range of 165 to 167 °C.

For `Cc1cc(Nc2ccnc(Nc3ccc(S(=O)(=O)N4CCC(CNCCC(=O)N(C)C)CC4)cc3)n2)ccc1F`, the melting point was determined as 201 °C.

Compound `CC(C)(C)c1cc(CS[C@@H]2CCCC[C@H]2SCc2cc(C(C)(C)C)cc(C(C)(C)C)c2O)c(O)c(C(C)(C)C)c1` (relative stereo) displayed a melting point of 104 to 106 °C.

`CN(CCO)C(=O)Nc1ccc([N+](=O)[O-])c(C(F)(F)F)c1` came in with a melting point of 180 to 181 °C.

For `N#CNc1ccccc1-c1ccc(F)cc1`, the melting point was in the range of 95 to 96 °C.

As to `CNCCCOc1ccc(-c2nnc(CSCCOc3ccccc3)o2)cc1`, the melting point lay in the range of 40 to 44 °C.

As for `Cc1cnc(-c2cc(F)ccc2CNC(=O)c2nc3n(c(=O)c2OCc2ccccc2)CCOC3(C)C)o1`, the melting point was 186 °C.

The compound `CCOC(=O)/C=C(\c1ccc(C)cc1)c1ccc(OC)c(OC)c1` had a melting point of 69 to 70 °C.

In turn, `CS(=O)(=O)Nc1cc(C(c2cc(F)ccc2F)S(=O)(=O)c2ccc(Cl)cc2)c(Cl)cn1` (centres undefined) came in with a melting point of 220 to 222 °C.

As for `CNS(=O)(=O)c1cc(C(=O)c2c(C)oc3ccccc23)ccc1Cl`, the melting point stood at 146 °C.

Take `COC(=O)CCc1ccc(C#CC2(O)CN3CCC2CC3)c(CO)c1` (centres undefined): the melting point was 35.8 °C.

As for `COC(=O)C(=O)c1ccc(OCCCNC(=O)c2ccc3ccccc3c2)cc1`, the melting point lay in the range of 143 to 144 °C.

In the case of `COC(=O)CCCc1cc2nc(Cl)ccc2n1S(=O)(=O)c1cc(F)cc(F)c1`, the melting point was 90 °C.

In the case of `CN1CC(c2cc[nH]n2)CC2c3cccc4[nH]cc(c34)CC21` (centres undefined), the melting point lay in the range of 160 to 162 °C.

Regarding `Nc1cccc2cc(-c3nccs3)[nH]c12`, the melting point lay within 173 to 174 °C.

Compound `O=C(Nc1ccc(C2(F)CCN(C(=O)OCc3ccccc3)CC2)c(F)c1)OCc1ccccc1` registered a melting point of 116 to 118 °C.

The compound `COc1ccc(C(Nc2ccc(C(=N)NO)cc2)C(=O)O)c(OCCO)c1` (racemic) gave a melting point of 205 °C.

`CC(C#Cc1ccc(-c2ccccc2)o1)N(O)C(N)=O` (centres undefined) had a melting point of 163 to 164 °C.

As for `COc1ccc(C(=O)CCC(=O)O)cc1NC(C)=O`, the melting point was 184 to 185 °C.

Compound `CC(NC(=O)OCc1ccccc1)C(=O)NCCc1ccccc1` (centres undefined) displayed a melting point of 125 to 126 °C.

The compound `Cc1c(C)c2c(c(C)c1N)C(O)(c1ccc3ccccc3c1)C(C)(C)O2` (centres undefined) returned a melting point of 121 to 122 °C.

Turning to `CCOC(=O)c1[nH]c2cc(Br)c(Cl)cc2c1-c1ccccc1F`, the melting point lay in the range of 193 to 194 °C.

As to `CCOCc1nc2c(N)nc3cccnc3c2n1CCCC(N)=O`, the melting point was 231 to 232 °C.

The compound `COC(CC(=O)c1ccccc1)c1ccc(Cl)cc1F` (centres undefined) gave a melting point of 59 to 61 °C.

`OC1(C23CC4CC(CC(C4)C2)C3)CCCCC1`: the melting point fell in the range of 166 to 168 °C.

In turn, `S=C(Cc1cccnc1)N1CCOCC1` yielded a melting point of 158 to 160 °C.

Take `FC(F)c1nc2ccccc2n1-c1nc(NCc2ccncc2)nc(N2CCOCC2)n1`: the melting point was 188 to 190 °C.

With `CCN1Cc2cccc3scc(c23)S1(=O)=O`, the melting point worked out at 156 °C.

The compound `Cc1ccc(C(=O)Nc2cc(F)ccc2F)cc1` displayed a melting point of 108 to 110 °C.

Consider `O=C(O)CCCCCCCn1cc(-c2ccccc2)c(-c2ccccc2)n1`, for which the melting point lay in the range of 108 to 110 °C.

For the compound `Nc1ccc(N=Nc2ccccc2)cc1Cl`, the melting point fell in the range of 152 to 153 °C.

As for `O=C(CN1CCNCC1)Nc1ccccc1`, the melting point is 71 to 72 °C.

Consider `CC(C)n1nc(-c2sc(C(=O)N3CCN(C)CC3)nc2-c2ccccc2)ccc1=O`, for which the melting point fell in the range of 155 to 156 °C.

With `COc1ccc(-c2nc(CCn3ccnc3)nc3cc(OC)c(OC)cc23)cc1OC`, the melting point is 147 to 148 °C.

`O=C(/C=C/c1cccc(NC(=O)/C=C/c2ccc3c(c2)OCO3)c1)NO` had a melting point of 128 °C.

`CC(C)(O)C#Cc1ccc(C#N)cc1Cl` returned a melting point of 63 to 65 °C.

Regarding `CCCCc1nc(C(O)C(C)C)c(C(N)=O)n1Cc1ccc(-c2ccccc2-c2nnn[nH]2)cc1` (centres undefined), the melting point is 155 to 157 °C.

`COCCOc1ccc(CSc2cnn(C(C)(C)C)c(=O)c2Cl)cc1`: the melting point was in the range of 106 to 107 °C.

`CCOC(=O)c1ccc2c(c1)C(C)(Cl)C(=S)N2` (centres undefined): the melting point lay within 205 to 207 °C.

Compound `CCOC(=O)C1=C(COCC#N)NC(C)=C(C(=O)OC)C1c1ccccc1Cl` (centres undefined) yielded a melting point of 128 to 130 °C.

`CC(C)(C)OC(=O)c1cccc(C#N)n1` registered a melting point of 156 to 157 °C.

In the case of `COC(=O)C1=C(C)NN=C(c2cccs2)C1c1cccc(Cl)c1` (centres undefined), the melting point amounted to 191 °C.

Regarding `COc1cc2c(c(OC(C)=O)c1)C1CCC3(C)C(=O)C(Br)CC3C1CC2` (centres undefined), the melting point fell in the range of 188 to 190 °C.

`O=C1C2CCC(N1c1ccc(F)cc1)n1c(=O)n(-c3ccccc3)c(=O)n12` (centres undefined) displayed a melting point of 167 to 168 °C.

As to `CN1C(=O)CC(=O)N(C2CCCCC2)C1=O`, the melting point lay in the range of 81 to 82 °C.

`NC(=O)CCC(Nc1ccc2ccccc2n1)C(=O)O` (centres undefined) yielded a melting point of 222 to 226 °C.

`CCCCc1nc2c(N)nc3ccccc3c2n1CCCCC(=O)N1CCOCC1` displayed a melting point of 141 to 143 °C.

The compound `CCOC(=O)c1ccc(NCCCCCCCCc2ccccc2)cc1` displayed a melting point of 61 to 68 °C.

On to `O=C1NC2Cc3ccccc3C2O1` (centres undefined), for which the melting point lay in the range of 205 to 206 °C.

The compound `CCOC(=O)c1cc(O)c2c(OC(C)C)ccc(Br)c2c1` yielded a melting point of 106 °C.

Compound `C=C1N(CCC)C(=O)OC12CCN(Cc1ccccc1)CC2` came in with a melting point of 70 to 71 °C.

Consider `CCN(CC)CCC(=O)NC1c2ccccc2-c2[nH]c(=O)c3nccn3c21` (centres undefined), for which the melting point came to 260 °C.

`N#Cc1ccc(NC2CCN(Cc3cccc(C(F)(F)F)c3)CC2)nc1`: the melting point is 112 °C.

Turning to `COC(=O)c1ccc(Br)c(O)c1`, the melting point lay within 130 to 132 °C.

`CC(C)c1cccc(C(C)C)c1NC(=O)CNC(c1ccccc1)c1ccccn1` (centres undefined) registered a melting point of 135 to 136 °C.

As for `CCCCCS(=O)(=O)NC(=O)/C=C/c1cc(C2CC2)nn1Cc1ccc(C(F)(F)F)cc1Cl`, the melting point lay in the range of 139 to 140 °C.

`C=C1NC(Nc2ccccc2)=C(C(=O)OCC)C(NN)=C1C#N` registered a melting point of 174 to 176 °C.

`O=C(O)c1cnc2ncnn2c1S`: the melting point fell in the range of 247 to 249 °C.

Regarding `CCOc1ccc(-c2c(Cl)c(CN3C(=O)CCC3=O)nc3sc4c(c23)CCN(C(C)=O)C4)cc1`, the melting point lay in the range of 260 to 262 °C.

`C=CCN1CCC2(CC1)CSC1=C(O2)c2ccccc2C(=O)C1=O` gave a melting point of 166 to 168 °C.

Compound `CCOC(=O)CCc1ccc2c(c1)c(-c1cc3cccnc3n1S(=O)(=O)c1ccc(C)cc1)cn2C` had a melting point of 280 to 282 °C.

Turning to `CCOc1cc2c(cc1S(=O)(=O)c1ccccc1)[C@@H](N1CCCC1=O)[C@H](O)C(C)(C)O2` (relative stereo), the melting point was 197 to 198 °C.

Compound `CCC(=O)Oc1ccc(/C=C/C=C/C(=O)NCCN2CCC(c3c[nH]c4ccccc34)CC2)cc1OC` came in with a melting point of 157 to 158 °C.

As for `CN(C)c1ccc(C(=CC=CC2N(C)c3ccccc3C2(C)C)c2ccc(N(C)C)cc2)cc1` (centres undefined), the melting point lay in the range of 182 to 183 °C.

As for `O=C(Nc1ccc(C(=O)N2CCCCc3sccc32)cc1)c1ccc(Cl)c(Cl)c1`, the melting point lay in the range of 154 to 160 °C.

Consider `CC(C)n1nc(-c2sc(NC(=O)c3ccc(Cl)cc3)nc2-c2ccccc2)ccc1=O`, for which the melting point lay in the range of 205 to 206 °C.

As for `CCCCCCCCCCCc1ccc(F)c(-c2nc(-c3c(F)cccc3F)nn2C)c1`, the melting point was in the range of 70 to 73 °C.

Compound `Clc1[nH]ncc1-c1csc(Nc2ccccn2)n1` returned a melting point of 299 to 304 °C.

As to `COc1cc(OCCCN(C)C)ccc1C(=O)NN`, the melting point is 47 to 52 °C.

With `CC1=CC(O)C(OC(=O)c2ccc(N)cc2N)C(C)(C)CC1=O` (centres undefined), the melting point lay within 185 to 186 °C.

For `CCCc1nc(CO)c(C(=O)OCOC(=O)C(C)(C)C)n1Cc1ccc(-c2ccccc2-c2nnn[nH]2)cc1`, the melting point is over 60 °C.

In the case of `COC(=O)C1=C(O)c2ccccc2S(=O)(=O)N1C`, the melting point was 163 to 165 °C.

In the case of `CCOC(=O)c1cccc(Nc2nc3ccccc3o2)c1`, the melting point fell in the range of 168 to 170 °C.

With `CCOC(=O)c1cn(CCCl)c2nc(N3CCN(C)CC3)ncc2c1=O`, the melting point fell in the range of 154 to 155 °C.
